# Data: US20120122727A1, “IN VITRO METHOD FOR PREDICTING WHETHER A COMPOUND IS GENOTOXIC IN VIVO” (priority 2009, published 2012)
# Legend:
# [1] = tested on: primary mouse hepatocytes
# [2] = tested on: primary mouse hepatocytes; assay: Gene expression (Affymetrix Mouse Genome 430 2.0) in primary mouse hepatocytes, true vs false GTX, 24 h and 48 h; conditions: log2, corrected for vehicle control
compound,measurement,setting,value
"c1ccc2c(c1)cc1ccc3cccc4ccc2c1c34 [BaP, Benzo(a)pyrene]",Gene expression data AF204959 (Cyp3a25 /// LOC622249),[1],0.3057
same,Gene expression data AF000969 (Cadps2),[2]; 24 h average,−1.91
same,Gene expression data AF022072 (Grb10),[2]; 24 h average,−0.2844
same,Gene expression data AF065917 (Lif),[2]; 24 h average,0.9227
same,Gene expression data AF297615 (Ggta1),[2]; 24 h average,1.735
same,Gene expression data AI594683 (Dmn),[2]; 24 h average,0.731
same,Gene expression data AI596632 (Ptprg /// LOC632664),[2]; 24 h average,−1.8362
same,Gene expression data AI987929 (Ndrg1),[2]; 24 h average,−0.3648
same,Gene expression data AK004419 (Fbxl17),[2]; 24 h average,−1.001
same,Gene expression data AK005731 (1700007K13Rik),[2]; 24 h average,2.016
same,Gene expression data AK007766 (1810044A24Rik),[2]; 24 h average,−1.288
same,Gene expression data AK007854 (1810053B23Rik),[2]; 24 h average,0.3514
same,Gene expression data AK009736 (Gpr137b /// LOC664862 /// LOC673335),[2]; 24 h average,0.2174
same,Gene expression data AK010447 (Smyd3),[2]; 24 h average,−1.0413
same,Gene expression data AK014608 (4632434l11Rik),[2]; 24 h average,1.665
same,Gene expression data AK019979 (2610528E23Rik),[2]; 24 h average,−0.6154
same,Gene expression data AV095209 (Mthfd1l),[2]; 24 h average,−0.5885
same,Gene expression data AV141095 (1110033M05Rik),[2]; 24 h average,−1.058
same,Gene expression data AV173571 (1700106N22Rik),[2]; 24 h average,−1.123
same,Gene expression data AV219418 (Ldhb),[2]; 24 h average,0.2781
same,Gene expression data AV223474 (Zdhhc14),[2]; 24 h average,−1.375
same,Gene expression data AV298304 (Homez),[2]; 24 h average,0.6204
same,Gene expression data AV327248 (Zfp365 /// LOC674611),[2]; 24 h average,1.102
same,Gene expression data AV377066 (9130221J18Rik),[2]; 24 h average,0.7572
same,Gene expression data AW240761 (Tbc1d5),[2]; 24 h average,−0.703
same,Gene expression data AW543460 (Pard3),[2]; 24 h average,−0.6194
same,Gene expression data AW543723,[2]; 24 h average,1.993
same,Gene expression data AW986246 (Maoa),[2]; 24 h average,0.1617
same,Gene expression data BB027848 (4732466D17Rik),[2]; 24 h average,0.0761
same,Gene expression data BB043558 (9230114K14Rik),[2]; 24 h average,1.247
same,Gene expression data BB275142 (AW456874),[2]; 24 h average,1.003
same,Gene expression data BB308836 (Ppm1l),[2]; 24 h average,−0.6122
same,Gene expression data BB318221 (Zdhhc14),[2]; 24 h average,−1.679
same,Gene expression data BB463610 (4632434l11Rik),[2]; 24 h average,2.144
same,Gene expression data BB526605 (Mipol1),[2]; 24 h average,−0.7419
same,Gene expression data BB770528 (Rai2),[2]; 24 h average,0.6977
same,Gene expression data BB821363 (Scfd2),[2]; 24 h average,−1.403
same,Gene expression data BC004827 (Psat1),[2]; 24 h average,−0.04097
same,Gene expression data BC008626 (Icam1),[2]; 24 h average,0.8234
same,Gene expression data BC010462 (BC010462),[2]; 24 h average,0.6663
same,Gene expression data BC012247 (Dcxr),[2]; 24 h average,0.4451
same,Gene expression data BC012260 (Psmf1),[2]; 24 h average,0.3127
same,Gene expression data BC015270 (Hist2h3c2),[2]; 24 h average,0.7908
same,Gene expression data BC016073 (Cdkal1),[2]; 24 h average,−0.6631
same,Gene expression data BC016265 (Ube2e2),[2]; 24 h average,−0.751
same,Gene expression data BC019882 (Acaa1b),[2]; 24 h average,2.0133
same,Gene expression data BC025501 (Aaas),[2]; 24 h average,1.5389
same,Gene expression data BC025837 (Sbk1),[2]; 24 h average,0.3802
same,Gene expression data BC025915 (Cova1),[2]; 24 h average,−0.5396
same,Gene expression data BC026422 (Tgm1),[2]; 24 h average,0.6019
same,Gene expression data BF719766 (Thyn1),[2]; 24 h average,0.9747
same,Gene expression data BG065754 (Ccng1),[2]; 24 h average,0.8607
same,Gene expression data BG066903 (Kif16b),[2]; 24 h average,−0.133
same,Gene expression data BG069873 (Gnb1l),[2]; 24 h average,1.299
same,Gene expression data BG070887 (Gtdc1),[2]; 24 h average,−0.9734
same,Gene expression data BG076151 (Ppm1d),[2]; 24 h average,0.728
same,Gene expression data BG261907 (Large),[2]; 24 h average,−1.3429
same,Gene expression data BI651416 (Cdc42bpg),[2]; 24 h average,1.679
same,Gene expression data BI660702 (Ell3),[2]; 24 h average,1.3867
same,Gene expression data BM198879 (Ercc5),[2]; 24 h average,1.054
same,Gene expression data BM230508 (A030007D23Rik),[2]; 24 h average,1.297
same,Gene expression data NM_007987 (Fas),[2]; 24 h average,0.8287
same,Gene expression data NM_008522 (Ltf),[2]; 24 h average,1.114
same,Gene expression data NM_008576 (Abcc1),[2]; 24 h average,0.1024
same,Gene expression data NM_011176 (St14),[2]; 24 h average,1.508
same,Gene expression data NM_011316 (Saa4),[2]; 24 h average,0.1871
same,Gene expression data NM_012006 (Acot1),[2]; 24 h average,3.255
same,Gene expression data NM_013866 (Zfp385),[2]; 24 h average,0.776
same,Gene expression data NM_018770 (Igsf4a),[2]; 24 h average,−0.8982
same,Gene expression data NM_021451 (Pmaip1),[2]; 24 h average,0.6364
same,Gene expression data NM_025770 (Atg10),[2]; 24 h average,−1.053
same,Gene expression data NM_028803 (Gbe1),[2]; 24 h average,−0.5416
same,Gene expression data NM_030697 (Ankrd47),[2]; 24 h average,1.4578
same,Gene expression data NM_053168 (Trim11),[2]; 24 h average,0.823
same,Gene expression data NM_134188 (Acot2),[2]; 24 h average,0.5856
same,Gene expression data Y15910 (Diap2),[2]; 24 h average,−1.352
same,Gene expression AA561726 average,[2]; 48 h,−1.7432
same,Gene expression AF000969 average,[2]; 48 h,−2.251
same,Gene expression AF022072 average,[2]; 48 h,−1.018
same,Gene expression AF033112 average,[2]; 48 h,1.4254
same,Gene expression AF055573 average,[2]; 48 h,−1.5573
same,Gene expression AF069954 average,[2]; 48 h,0.8863
same,Gene expression AF297615 average,[2]; 48 h,1.572
same,Gene expression AF335325 average,[2]; 48 h,1.4875
same,Gene expression AI594683 average,[2]; 48 h,1.466
same,Gene expression AI747296 average,[2]; 48 h,−2.124
